US20160106814A1, “Novel Oral Pharmaceutical Composition for Treatment of Diabetes” (NOVO NORDISK A/S, priority 2013, published 2016)

Experiment: Transport of GLP-1 peptide across mucus-producing E12 cell monolayers in the presence of sodium caprate and BBI
Type: in vitro ADME
Details: pH 7.4, apical to basolateral
Description: Buffer was then removed and the experiment initiated. […] Receiver samples (200 μl) were taken every 15 min.
In all samples with GLP-1 peptide and mannitol, the concentration of GLP-1 peptide was determined using a LOCI assay (or LC-MS assay) and scintillation counter, respectively.

[1] = 100 μM GLP-1 peptide + 13 mM sodium caprate + 0.2% BBI
[2] = 100 μM GLP-1 peptide + 13 mM sodium caprate, without BBI

Row | Structure (SMILES) | Papp A→B [1] [×10⁻⁶ cm/s] | Papp A→B [2] [×10⁻⁶ cm/s]
1 | CC[C@H](C)[C@H](NC(=O)[C@H](Cc1ccccc1)NC(=O)[C@H](CCC(=O)O)NC(=O)[C@H](CCCCNC(=O)COCCOCCNC(=O)COCCOCCNC(=O)CC[C@H](NC(=O)CCCCCCCCCOc1ccc(C(=O)O)cc1)C(=O)O)NC(=O)[C@H](C)NC(=O)[C@H](C)NC(=O)[C@H](CCC(N)=O)NC(=O)CNC(=O)[C@H](CCC(=O)O)NC(=O)[C@H](CC(C)C)NC(=O)[C@H](Cc1ccc(O)cc1)NC(=O)[C@H](CO)NC(=O)[C@H](CO)NC(=O)[C@@H](NC(=O)[C@H](CC(=O)O)NC(=O)[C@H](CO)NC(=O)[C@@H](NC(=O)[C@H](Cc1ccccc1)NC(=O)[C@@H](NC(=O)CNC(=O)[C@H](CCC(=O)O)NC(=O)C(C)(C)NC(=O)[C@@H](N)Cc1c[nH]cn1)[C@@H](C)O)[C@@H](C)O)C(C)C)C(=O)N[C@@H](C)C(=O)N[C@@H](Cc1c[nH]c2ccccc12)C(=O)N[C@@H](CC(C)C)C(=O)N[C@H](C(=O)N[C@@H](CCCNC(=N)N)C(=O)NCC(=O)N[C@@H](CCCNC(=N)N)C(=O)N[C@@H](CCCCNC(=O)COCCOCCNC(=O)COCCOCCNC(=O)CC[C@H](NC(=O)CCCCCCCCCOc1ccc(C(=O)O)cc1)C(=O)O)C(=O)O)C(C)C [GLP-1 peptide 9, N{Epsilon-26}-[2-[2-[2-[[2-[2-[2-[[(4S)-4-carboxy-4-[10-(4-carboxyphenoxy)-decanoylamino]butanoyl]amino]ethoxy]ethoxy]acetyl]amino]ethoxy]ethoxy]acetyl], N{Epsilon-37}-[2-[2-[2-[[2-[2-[2-[[(4S)-4-carboxy-4-[10-(4-carboxyphenoxy)decanoylamino]butanoyl]-amino]ethoxy]ethoxy]acetyl]amino]ethoxy]ethoxy]acetyl]-[Aib8,Arg34, Lys37]-GLP-1-(7-37)-peptide] | 0.379 | 0.272
2 | CC[C@H](C)[C@H](NC(=O)[C@H](Cc1ccccc1)NC(=O)[C@H](CCC(=O)O)NC(=O)[C@H](CCCCNC(=O)COCCOCCNC(=O)COCCOCCNC(=O)CC[C@H](NC(=O)CCCCCCCCCCCCCCCCC(=O)O)C(=O)O)NC(=O)[C@H](C)NC(=O)[C@H](C)NC(=O)[C@H](CCC(N)=O)NC(=O)CNC(=O)[C@H](CCC(=O)O)NC(=O)[C@H](CC(C)C)NC(=O)[C@H](Cc1ccc(O)cc1)NC(=O)[C@H](CO)NC(=O)[C@H](CO)NC(=O)[C@@H](NC(=O)[C@H](CC(=O)O)NC(=O)[C@H](CO)NC(=O)[C@@H](NC(=O)[C@H](Cc1ccccc1)NC(=O)[C@@H](NC(=O)CNC(=O)[C@H](CCC(=O)O)NC(=O)C(C)(C)NC(=O)[C@@H](N)Cc1c[nH]cn1)[C@@H](C)O)[C@@H](C)O)C(C)C)C(=O)N[C@@H](C)C(=O)N[C@@H](Cc1c[nH]cn1)C(=O)N[C@@H](CC(C)C)C(=O)N[C@H](C(=O)N[C@@H](CCC(N)=O)C(=O)NCC(=O)N[C@@H](CCCNC(=N)N)C(=O)NCC(=O)O)C(C)C [GLP-1 peptide 8, N{Epsilon-26}-[2-[2-[2-[[2-[2-[2-[[(4S)-4-carboxy-4-(17-carboxy-heptadecanoylamino)butanoyl]amino]ethoxy]ethoxy]acetyl]amino]ethoxy]ethoxy]acetyl]-[Aib8,His31,Gln34]-GLP-1-(7-37)-peptide] | 0.363 | 0.184
